Values joined by “and” are separate entries in the source; they are usually repeats but may differ in a detail not shown here. Equal entries are not always repeated.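 Interpolation was linear, between the two tested concentrations surrounding the appropriate level; five concentrations were tested over 48 hours in 96-well plates. The concentration for 50% growth inhibition is given as GI50. Definition used: TGI = concentration required for complete inhibition of growth.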
Legend:
Assay in all cases: NCI-60 cell line screen, 48 h
[1] = test system: A498 renal
[2] = test system: SNB-75 CNS
[3] = test system: OVCAR-4 ovarian
[4] = test system: LOX IMVI melanoma
[5] = test system: PC-3 prostate
[6] = test system: SNB-19 CNS
[7] = test system: ACHN renal
[8] = test system: SK-MEL-5 melanoma
[9] = test system: OVCAR-3 ovarian
[10] = test system: OVCAR-5 ovarian

Row | Compound | GI50 [1] [µM] | TGI [1] | GI50 [2] [µM] | TGI [2] | GI50 [3] [µM] | TGI [3] | GI50 [4] [µM] | TGI [4] [µM] | GI50 [5] [µM] | TGI [5] | GI50 [6] [µM] | TGI [6] | GI50 [7] [µM] | TGI [7] | GI50 [8] [µM] | TGI [8] | GI50 [9] [µM] | TGI [9] | GI50 [10] [µM] | TGI [10]
1 | Cc1ccc2c(C(C[N+](=O)[O-])c3cccs3)c(-c3ccccc3)[nH]c2c1 (stereo unspecified) | 1.05 | 4.34 µM | 0.638 | 2.49 µM | 4.45 | 13.9 µM | 1.78 | 6.05 | 2.46 | 16.1 µM | 1.72 | 7.05 µM | 2.15 | 13.3 µM | 1.07 | 4.21 µM | 1.24 | 4.75 µM | 4.07 | 11.1 µM
2 | COC(=O)C(=O)CC(=O)CCn1ncc(Cl)c(Cl)c1=O |  | 49.6 µM |  | 35.6 µM |  | 6.61 µM |  | 15.3 | 14.5 | 37.2 µM |  | 32.5 µM |  | 34.9 µM |  | 30.8 µM |  | 17.8 µM |  | 34.9 µM
3 | C=C1C(=O)O[C@H]2[C@H]1CC/C(CNC(=O)c1c[nH]c3ccc(F)cc13)=C\CC[C@@]1(C)O[C@@H]21 | 1.99 | 11.9 µM | 1.81 | 16.2 µM | 3.17 | 15.2 µM | 0.731 | 2.14 | 2.91 | 12.1 µM | 11.9 | 26.1 µM | 1.04 | 2.38 µM | 2.25 | 5.56 µM | 0.486 | 1.77 µM | 1.9 | 4.82 µM
4 | NC(N)=N/N=C(/c1ccccc1)c1ccc(F)cc1 | 0.299 | 3.28 µM | 0.183 | 3.09 µM | 1.01 | 37.7 µM | 0.513 | 10.7 | 0.382 | 18.8 µM | 0.476 | 19.5 µM | 0.75 | 16.4 µM | 0.316 | 4.66 µM | 0.227 | 0.621 µM | 1.03 | 18.7 µM
5 | CN1CCN(CC#Cc2cccc(C(=O)c3cnn(-c4ccc(F)cc4)c3N)c2)CC1 | > 25 | > 25 µM | > 25 | > 25 µM | > 25 | > 25 µM | > 25 | > 25 | > 25 | > 25 µM | > 25 | > 25 µM | > 25 | > 25 µM | > 25 | > 25 µM | > 25 | > 25 µM | > 25 | > 25 µM
6 | COc1ccc(C(=S)N2CCN(c3cccc(Cl)c3)CC2)cc1 | > 100 | > 100 µM | 45.1 | > 100 µM | > 100 | > 100 µM | > 100 | > 100 | 38.6 | > 100 µM | > 100 | > 100 µM | > 100 | > 100 µM | 84.2 | > 100 µM | > 100 | > 100 µM | > 100 | > 100 µM
7 | CCn1c(-c2nonc2N)nc2c(C#CCN)ncc(OCCCN)c21 | > 18.6 | > 25 µM | > 24.2 | > 25 µM | > 25 | > 25 µM | > 25 | > 25 | > 25 | > 25 µM | > 25 | > 25 µM | > 25 | > 25 µM | > 25 | > 25 µM | > 25 | > 25 µM | > 25 | > 25 µM
8 | COC1(C(=O)N2Cc3nc(Cl)nc(N[C@H](C)c4cc(N)cc(C(F)(F)F)c4)c3C2)CCOCC1 | 11.2 | 58.6 µM | 17.4 | 62.9 µM | 19.8 | 99.2 µM | 15.6 | 29.2 | 21.3 | > 91.8 µM | 14.5 | 72 µM | 18.5 | 71.4 µM | 14.8 | 28.1 µM | 16.3 | 49 µM | 18.2 | 58 µM
9 | CC(=O)OCC1OC(O[C@@H]2C[C@H]3C(C)(C)[C@H](OC(C)=O)CC[C@]3(C)[C@H]3CCC4=C([C@@H](C)C[C@@H](O)[C@H](O)C(C)(C)O)CC[C@@]4(C)[C@@]32C)C(O)C(O)C1O (stereo partly specified) | 17.2 | 31.1 µM | 13.2 | 26 µM | 17 | 31.1 µM | 12.5 | 25 | 14.5 | 27.9 µM | 14.3 | 27.7 µM | 17.8 | 31.9 µM | 16.2 | 29.7 µM | 14.4 | 27.8 µM | 17.7 | 31.6 µM
10 | CN=C(N)N/N=C(\c1ccccc1)c1ccc(Br)cc1 | 0.232 | 1.01 µM | 0.387 | 6.51 µM | 0.713 | 15.2 µM | 0.494 | 2.97 | 0.402 | 11 µM | 0.6 | 13.9 µM | 0.467 | 10.1 µM | 0.335 | 1.29 µM | 0.29 | 2.55 µM | 0.494 | 5.62 µM
11 | Clc1ccccc1C(c1ccccc1)(c1ccccc1)n1ccnc1 | 2.15 | 6.02 µM and 43.8 µM | 2.14 | 8.72 µM and 35.5 µM | 2.95 | 15.5 µM and 41.3 µM | 1.69 | 4.66 | 1.67 | 12.4 µM and 20.2 µM | 3.14 | 17.7 µM and 32.3 µM | 2.87 | 13.1 µM and 25.6 µM | 2.61 | 10.4 µM and 22.3 µM | 1.78 | 4.41 µM and 17.6 µM | 4.05 | 15.5 µM and 29.8 µM
12 | CC(C)(C)c1cc(O)c(O)c(C(C)(C)C)c1 | 6.19 | 19.8 µM | 4.86 | 19 µM | 2.31 | 5.84 µM | 3.05 | 12.9 | 3.55 | 15.9 µM | 7.3 | 20.3 µM | 2.15 | 4.13 µM | 4.68 | 15.8 µM | 1.93 | 3.38 µM | 11.1 | 23.3 µM
